According to patent US20230338495A1, “Vaccine Compositions and Antibodies For Lyme Disease” (priority 2020, published 2023):

Experiments:
[1] = test system: IgM in Lyme Disease patient sera; assay: MSD-ECL assay with Biotin-BBGL-1 / Biotin-BBGL-2 coated streptavidin plates, anti-IgM detection; type: binding, human; settings: biotinylated antigen coated at 1 ug/mL; for IgM titer, EU: NC= 189.75
Description: (§1) A Meso Scale Discovery Electrochemiluminescence (MSD-ECL) assay was developed using Biotin-BBGL-1 and Biotin-BBGL-2 to measure antibody titers in Lyme Disease patient samples. The assay involved first blocking MSD streptavidin gold plate with 4% BGG (bovine gamma globulin in PBS), washing the plates with PBS and the coating Biotin-BBGL-1 and Biotin-BBGL-2 at concentration of 4 ug/mL (diluted in 4% BGG) for coating for IgG side of plate and at concentration of 1 ug/mL (diluted in 4% BGG) for coating for IgM side of plate. Serum samples (diluted 1:5) were then added to each well, incubated, and washed.
(§2) Detection reagents (Sulfo tag anti-lgG Fc or anti-IgM) were then added, incubated, and washed, followed by reading the plates on a Sector Imager (Meso Scale Diagnostic, Rockville, MD USA).

[2] = test system: IgG in Lyme Disease patient sera; assay: MSD-ECL assay with Biotin-BBGL-1 / Biotin-BBGL-2 coated streptavidin plates, anti-IgG Fc detection; type: binding, human; settings: biotinylated antigen coated at 4 ug/mL; for IgG titer, EU: NC= 166.75
Description: as §1, §2

[3] = test system: Borrelia burgdorferi; assay: In vitro neutralization of Borrelia burgdorferi by Day 30 serum samples from immunized mice; type: in vivo; settings: Day 30 sera of C3H/HeJ mice, n=6 per group; dosing at day 1 (77 µg/mouse per immunization, 10 µg QS-21/mouse)
Description: A pilot study in mice was conducted to determine the safety and in vitro efficacy of the BBGL-1 and BBGL-2 liposome vaccines in the absence or presence of the adjuvant QS-21 (Desert King International, San Diego, CA USA). Eighty-four (42 male, 42 female) C3H/HeJ mice (The Jackson Laboratory, Bar Harbor, ME USA), at approximately 7 weeks were used in the study, which is outlined in Table 17a and 17b.
7 Group of Mice (6 male and 6 female in each group) were given either 1) adjuvant alone, 2) Immunization A, 3) Adjuvant + Immunization A, 4) Immunization B, 5) Adjuvant + Immunization B, 6) Immunization A + Immunization B, or 7) Adjuvant + Immunization A + Immunization B
Immunization A and Immunization B were administered at 77 µg/mouse doses at day 1 and Day 30. Groups receiving adjuvant received 10 µg QS-21/mouse at Day 1 and Day 30.
Whole blood was collected into serum separator tubes at baseline and days 7, 15, 30, 45, and 60. Blood was allowed to clot and centrifuged at 1500xg and 10° C. for 15 minutes. Serum was aliquoted and stored at -30° C.
Serum aliquots were evaluated after 30 days, for neutralizing antibodies against Borrelia burgdorferi, B. mayonii, B. afzelii, and B. garinii using laboratory developed assays.
In vitro neutralization of Borrelia burgdorferi from Day 30 assessed with half of the mouse serum samples (n=6 per group) are shown in FIG. 7a.

| Compound | IgM titer, Fold/Baseline ([1]; patient L1 serum diluted 1:5) [Fold/Baseline] | IgM titer, EU ([1]; patient L1 serum diluted 1:5) [EU] | IgM titer, Fold/Baseline ([1]; patient L2 serum diluted 1:5) [Fold/Baseline] | IgM titer, EU ([1]; patient L2 serum diluted 1:5) [EU] | IgM titer, Fold/Baseline ([1]; patient L3 serum diluted 1:5) [Fold/Baseline] | IgM titer, EU ([1]; patient L3 serum diluted 1:5) [EU] | IgG titer, Fold/Baseline ([2]; patient L1 serum diluted 1:5) [Fold/Baseline] | IgG titer, EU ([2]; patient L1 serum diluted 1:5) [EU] | IgG titer, Fold/Baseline ([2]; patient L2 serum diluted 1:5) [Fold/Baseline] | IgG titer, EU ([2]; patient L2 serum diluted 1:5) [EU] | IgG titer, Fold/Baseline ([2]; patient L3 serum diluted 1:5) [Fold/Baseline] | IgG titer, EU ([2]; patient L3 serum diluted 1:5) [EU] | neutralization activity [3] [%] |
| --- | --- | --- | --- | --- | --- | --- | --- | --- | --- | --- | --- | --- | --- |
| CCCCCCCCCCCCCCCC(=O)OC[C@H]1O[C@@H](O[C@H]2CC[C@@]3(C)C(=CC[C@H]4[C@@H]5CC[C@H]([C@H](C)CCCC(C)C)[C@@]5(C)CC[C@@H]43)C2)[C@H](O)[C@@H](O)[C@H]1O [BBGL1, cholesteryl 6-O-palmitoyl-β-D-galactopyranoside] | 21 | 4055.50 | 2 | 390.00 | 7 | 1338.00 | 1.3 | 218.50 | 0.9 | 143.50 | 1.0 | 166.00 |  |
| CCCCCCCC/C=C\CCCCCCCC(=O)OC[C@H](CO[C@H]1O[C@H](CO)[C@H](O)[C@H](O)[C@H]1O)OC(=O)CCCCCCCCCCCCCCC [BBGL2, 1-oleoyl-2-palmitoyl-3-(α-D-galactosyl)-sn-glycerol] | 18 | 3458.00 | 2 | 344.50 | 6 | 1229.50 | 16 | 2720.00 | 4 | 619.50 | 1.1 | 178.00 |  |
| QS-21 |  |  |  |  |  |  |  |  |  |  |  |  | > 15 |
